Results from US11135231B2, “Methods and compositions for prevention and treatment of Apicomplexan infections” (Tufts Medical Center, Inc., priority 2016, dated 2021).

Tests used:
T. gondii = assay: MTS host cell viability readout of T. gondii-infected HFF cells; format: cell-based; details: Toxoplasma gondii, read-out: effective concentration at which 50% of the host cells survived (EC50)
Protocol: (§1) Readouts of host cell viability were used to quantify the dose-response of tartrolon D/E against T. gondii. Human foreskin fibroblast (HFF) cells, after having been infected by T. gondii for 24 hours, were treated with dilutions of tartrolon D/E that have been purified as in Example 2, or DMSO (control) for 72 hours. Host cell viability was then measured by MTS assay (CellTiter 96® AQueous One Solution Cell Proliferation Assay, Promega). The effective concentration at which 50% of the host cells survived (EC50) was about 5 nM (FIG. 4A).

Plasmodium berghei = assay: Plasmodium berghei-luciferase infection in mice, IVIS imaging; format: in vivo; details: IVIS image FIG. 14B, 1 of the 4 control mice
Protocol: Mice were infected with Plasmodium berghei expressing luciferase. 48 hours post infection mice were treated with tartrolon D/E (specifically, D2) initially solubilized in 2% methylcellulose and 0.5% Tween80 by intraperitoneal injection for 5 days, once per day. Control mice were treated with vehicle alone. Seven days after infection, mice were given luciferase substrate (150 mg/kg D-luciferin Potassium salt in PBS (Goldbio)) and imaged in an IVIS Lumina II to quantify level of infection.

HFF cell = HFF cell viability by MTS assay; format: cell-based, human; details: at the concentrations tested
Protocol: as §1
At the concentrations tested, tartrolon D/E had no effect on HFF cell viability as measured by MTS assay, indicating likely safety for in vivo administration. […] The aberration in the parasite morphology, stark when compared to untreated cell infection shown in the left columns of FIGS. 4B and 4C, provides direct evidence of irreversible inhibition and killing of the target parasite by compounds of the invention.

Toxoplasma gondii = assay: Immunofluorescence assay (anti-SAG1) of T. gondii-infected HFF cells; format: cell-based; details: T. gondii in HFF cells, FIG. 4B/4C
Protocol: FIGS. 2B and 2C show results for experiments that were conducted as for FIG. 2A, except that 24 hours after addition of the fractions, the infected HFF cells were processed for immunofluorescence assays. Briefly, infected and treated HFF cells that had been grown on coverslips in 6-well plates were fixed with methanol and parasites were detected using antibody to the SAG1 T. gondii surface antigen that was then detected with a red-fluorescence tagged secondary antibody. Host nuclei were stained with blue fluorescent marker DAPI (4′,6-diamidino-2-phenylindole). Host nuclei were clearly visible (blue) in all cell populations in both FIGS. 2B and 2C. Consistent with the trypan blue results, extensive red fluorescence was visible in cells treated with the control (DMSO) in FIG. 2C, meaning these cells were highly infected with the parasites.

Caco2 cell = Caco2 cell viability; format: cell-based; details: concentrations up to 500 nM
Protocol: (§2) The effect of Tartrolon D/E on Cryptosporidium proliferation was evaluated by measuring host cell ATP levels (CellTiter-Glo® Luminescent Cell Viability Assay, Promega). Caco2 cells, having been infected with 2×10^5 C. parvum oocysts for 7 hours, were treated with dilutions of tartrolon D/E or DMSO (control) and cellular ATP levels were measured at the 48-hour time point post-infection.
(§3) The morphology of treated parasites (FIG. 6B) was similar to that seen with T. gondii, in which the vacuole contained intact nuclei but no intact merozoites.

[1] = test system: Bovine Turbinate (BT) cells (ATCC #CRL-1390); assay: Toxicity for mammalian cells, CellTiter Glo cell viability assay; format: cell-based; details: 24 hours
Protocol: Toxicity of the compounds of the invention for mammalian cells was determined. Bovine Turbinate (BT) cells (ATCC #CRL-1390) are a primary cell line (not a transformed cancer cell line) and were used to provide a preliminary evaluation of the toxicity of tartrolon D/E for mammalian cells. Briefly, BT cells were cultured in the presence of increasing starting concentrations of Tartrolon D/E for 24 hours. Cell proliferation was measured using CellTiter Glo Cell Viability Assay (Promega) and the data was analyzed with GraphPad Prism.

[2] = test system: apicomplexan parasites tested; assay: Summary of in vitro EC50 against the apicomplexan parasites tested; format: cell-based; details: general range
From the text: For therapeutic purposes, the compounds of the invention may be formulated into a pharmaceutical composition, by mixing a therapeutically effective amount of the compound(s) of the invention with a pharmaceutically acceptable excipient, carrier, or diluent, and optionally in combination with one or more additional active agents, e.g., a second anti-parasitic agent. […] With an EC50 value as low as the picomolar to nanomolar level provides further confidence that the active ingredients, once administered in vivo, would likely achieve the expected anti-parasitic effects. According to an aspect of the present invention, tartrolon D and/or tartrolon E can be used as a therapeutic for treatment or prevention of human and animal diseases caused by various protozoan parasites.

[3] = test system: three human tumor cell lines; details: cited from earlier work
Cryptosporidium parvum [4] = assay: Host cell ATP assay (CellTiter-Glo) of C. parvum-infected Caco2 cells; format: cell-based; details: Caco-2, host cell ATP at 48 h post-infection, read-out: EC50 against C. parvum
Protocol: as §2

P. falciparum strains = assay: 3H hypoxanthine incorporation assay of P. falciparum strains in human red blood cells; format: cell-based, Plasmodium falciparum
Protocol: The potency of the compounds of the invention against multi-drug resistant P. falciparum strains was tested. Parasites were cultured in 96-well plates in human red blood cells at 0.5% initial parasitemia for 72 hours in the presence of dilutions of tartrolon D/E (specifically, D2 as the starting material in FIG. 11A), purified tartrolon E (FIG. 11C), dihydroartemisinin (DHA, as a positive control in FIG. 11B), or DMSO (as a negative control). Parasites proliferation was then determined by ^3H hypoxanthine incorporation.
Specifically, parasitized red blood cells (pRBCs) were grown in 0.5% Albumax I (Thermo Fisher Scientific). Assays were set up in 96-well plates at 0.5% initial parasitemia and 0.5% hematocrit. Parasites were exposed to various concentrations of Tartrolon D or E and dihydroartemisinin (DHA) for 48 hours and then pulsed with 0.5 microcuries of tritium-labeled hypoxanthine Moravek (MT-700) for another 24 hours. At the end of 72 hours, assay plates were processed through an Inotech cell harvester and collected on Inotech glass fiber filters. Filters were transferred to Omniplate-96 cassettes (Perkin Elmer) and dried overnight at room temperature. About […] of Microscint-O scintillation cocktail (Perkin Elmer) was added to each well. Each well was counted for 2 minutes on a Packard Topcount scintillation counter. The uptake of radiolabeled hypoxanthine by compound-treated pRBCs was compared relative to uptake by DMSO solvent-treated controls. […] The starting material used as the active reagent in FIG. 11C was tartrolon E, purified as follows: extract from the bacterial pellet of the Teredinibacter turnerae T7901 was purified by reversed phase HPLC using diode array detection. A C18 column (Phenomenex CHO-7878, 100×10 mm) was employed with an isocratic mobile phase (85% acetontrile in water, 3.5 mL/min) to yield tartrolon E (4.7 mg, retention time 8 min).

Cryptosporidium parvum [5] = assay: Morphology of C. parvum parasites after treatment (immunofluorescence); format: cell-based; details: 100 nM, 9 hours (FIG. 6B)
From the text: Insets (upper right in each image) are enlargements of boxed regions (dashes). Red: Rabbit α gp15 detected with Alexafluor 594-conjugated goat anti-rabbit IgG secondary antibody; blue: DAPI; scale=20 μm; insets=5 μm.
as §3

Row | SMILES | EC50 (T. gondii) [nM] | treated mice with significant areas with no parasites (Plasmodium berghei) | effect on HFF cell viability (HFF cell) | parasite morphology (Toxoplasma gondii) | effect on Caco2 cell viability (Caco2 cell) | toxic dose at which 50% of the cells were killed [1] [µM] | EC50 [2] [nM] | cytotoxic activity [3] | EC50 (Cryptosporidium parvum [4]) [nM] | EC50 (P. falciparum strains; Plasmodium falciparum, 3D7, Erythrocyte, parasite line 3D7) [nM] | EC50 (P. falciparum strains; Plasmodium falciparum, DD2, Erythrocyte, parasite line Dd2) [nM] | EC50 (P. falciparum strains; Plasmodium falciparum, Erythrocyte, parasite line 7G8) [nM] | EC50 (P. falciparum strains; Plasmodium falciparum, Erythrocyte, parasite line 2012 Indian Isolate (Goa)) [nM] | EC50 (P. falciparum strains; Plasmodium falciparum, Erythrocyte, parasite line D6) [nM] | EC50 (P. falciparum strains; Plasmodium falciparum, Erythrocyte, parasite line V1S) [nM] | EC50 (P. falciparum strains; Plasmodium falciparum, HB3, Erythrocyte, parasite line HB3) [nM] | EC50 (P. falciparum strains; Plasmodium falciparum, NF54, Erythrocyte, parasite line NF54) [nM] | EC50 (P. falciparum strains; Plasmodium falciparum, TM90C2A, Erythrocyte, parasite line TM90C2A) [nM] | EC50 (P. falciparum strains; parasite line 3D7) [nM] | morphology of treated parasites (Cryptosporidium parvum [5])
1 | C[C@@H]1C(=O)C[C@@H](O)CC/C=C/C=C\CC[C@H](C)OC(=O)C(O)[C@]2(O)O[C@@H](CC[C@H]2C)[C@H](C)C(=O)C[C@@H](O)CC/C=C/C=C\CC[C@H](C)OC(=O)C(O)[C@]2(O)O[C@H]1CC[C@H]2C (some centres unmarked) [Tartrolon D/E] | ~5 | 4 of the 5 | no effect | aberrant morphology | no effect | 1.14 | 0.1 to 16 | – | – | – | – | – | – | – | – | – | – | – | – | –
2 | C[C@@H]1C(=O)C[C@@H](O)CC/C=C/C=C\CC[C@H](C)OC(=O)C(O)[C@]2(O)O[C@@H](CC[C@H]2C)[C@H](C)C(=O)C[C@@H](O)CC/C=C/C=C\CC[C@H](C)OC(=O)C(O)[C@]2(O)O[C@H]1CC[C@H]2C (some centres unmarked) [Tartrolon D, tartrolon D] | – | – | – | – | – | – | – | strong cytotoxic activity | ~12 | 0.11 | 0.28 | 0.18 | 0.26 | 0.14 | 0.31 | 0.13 | 0.2 | 0.16 | 0.19 | most parasites did not progress past the single cell stage
